Experimental data taken from patent US20250296909A1, “NOVEL BENZENE DERIVATIVE AND IMMUNOSUPPRESSION-RELATED USE THEREOF” (PROVIBIO CO., LTD., priority 2021, published 2025).

What was measured:
[1] = system: spleen T cells; experiment: T cell proliferation inhibition (CFSE, FACS), CD3/CD28-activated spleen T cells; type: cell-based, C57BL/6 mice; conditions: Table 2, 3 days, relative to CD3/CD28+DMSO; for inhibition at 10 µM / inhibition at 30 µM / inhibition at 50 µM: Mus musculus, T-cell, 72 h, read-out: Proliferation inhibition rate (%)
Method: To investigate whether the compounds obtained in the Preparation Example have an inhibitory effect on T cell proliferation, the T cell proliferation was determined ex vivo using the fluorescent dye carboxyfluorescein diacetate succinimidyl ester (CFSE), which binds to intracellular molecules by covalent bonds.
Spleens were harvested and minced from C57BL/6 mice at 7 weeks of age, and then single cells were isolated using a strainer (40 μm pore size, SPL). Red blood cells were removed using ACK (Ammonium-Chloride-Potassium) lysis buffer to isolate only leukocytes. Subsequently, CD90.2 microbeads (130-121-278, Miltenyi Biotech.) were added, and subjected to react at 4° C. for 20 minutes. After that, spleen T cells were isolated using a MACS Magnetic Stand and LS column. The isolated T cells from the spleen were resuspended in 1 mL of Free media (RPMI-1640+200 U/mL penicillin+200 μg/mL streptomycin), followed by the addition of 0.3 μL of CFSE (10 mM), and reacted at 37° C. for 5 minutes. Subsequently, 10 mL of Free media was added to stop the reaction, and the cells were centrifuged to obtain the cell pellet. RPMI 1640 medium containing 10% FBS, 100 U/mL penicillin, and 100 μg/mL streptomycin was added to suspend the cells, and 2×10^5 cells per well were seeded into a 96-well plate and T cells were activated by treatment with CD3 and CD28 antibodies (each at 0.5 μg/mL).
The compound diluted in DMSO was treated in triplicate at concentrations of 10 μM, 30 μM, and 50 μM, respectively. After incubation at 37° C. with 5% CO2 for 3 days, cell proliferation levels were determined using a FACS Canto machine.
In the FACS graph of FIG. 1, the y-axis represents the quantity (number) of cells, while the x-axis represents the fluorescence level of the cells. […] This reduction in CFSE fluorescence results in a leftward shift along the x-axis in the graph. This indicates cell proliferation.
To collectively indicate the proliferation inhibition rate for the experimental results, the relative value of the proliferation amount after compound administration to the proliferation amount after CD3/CD28+DMSO administration was calculated. Subsequently, it was converted into an inhibition amount and expressed as a percentage, thereby determining the proliferation inhibition rate. Specifically, the proliferation inhibition rate was calculated as follows: […]

[2] = system: T lymphocyte cell line Jurkat E6-1; experiment: Cytotoxicity experiment (CCK-8, relative cell survival); type: cell-based; conditions: 24 hours, untreated cells = 100%
Method: To evaluate the cytotoxicity of the compound according to the present invention, the following experiment was conducted.
The T lymphocyte cell line Jurkat E6-1, purchased from the Korean Cell Line Bank, was cultured in RPMI-1640 medium comprising 10% FBS, 100 U/mL penicillin, and 100 μg/mL streptomycin. After culturing, the cells were harvested and centrifuged at 1,300 rpm for 5 minutes. After removal of the supernatant, the cells were resuspended in the same medium at a concentration of approximately 2.2×10^5 cells/mL, and 90 μL of the cell suspension was distributed per well into a 96-well plate (Costar 96 well cell culture plate, Corning). After treating 10 μL of each compound at different concentrations onto the respective wells of the plate, it was cultured for 24 hours at 37° C. in a 5% CO2 incubator. Subsequently, 10 μL of CCK-8 was added to each well, and it was cultured again for 2 hours at 37° C. in a 5% CO2 incubator. Absorbance was then measured at 450 nm to determine the relative cell survival rate compared to untreated cells, as shown in Table 4.
The values listed in Table 4 represent the relative cell survival rates in the groups treated with each compound at different concentrations, with the cell survival rate of untreated cells set as 100%.

## CCCCCCCCCCCCNC(=O)c1cccc(Cl)c1N [Compound 29]
[1]; 10 μM
  inhibition at 10 µM: 5%
[1]; 30 μM
  inhibition at 30 µM: 33%
[1]; 50 μM
  inhibition at 50 µM: 65%
[2]; 10 μM
  Relative cell survival rate (%): 107%
[2]; 20 μM
  Relative cell survival rate (%): 80%
[2]; 30 μM
  Relative cell survival rate (%): 77%
[2]; 50 μM
  Relative cell survival rate (%): 60%

## CCCCCCCCCCCCNC(=O)c1c(Cl)ccnc1Cl [Compound 30]
[1]; 10 μM
  inhibition at 10 µM: 16%
[1]; 30 μM
  inhibition at 30 µM: 41%
[1]; 50 μM
  inhibition at 50 µM: 55%
[2]; 10 μM
  Relative cell survival rate (%): 120%
[2]; 20 μM
  Relative cell survival rate (%): 109%
[2]; 30 μM
  Relative cell survival rate (%): 108%
[2]; 50 μM
  Relative cell survival rate (%): 106%

## CCCCCCCCCCCCNC(=O)c1cccnn1 [Compound 31]
[1]; 10 μM
  inhibition at 10 µM: 15%
[1]; 30 μM
  inhibition at 30 µM: 57%
[1]; 50 μM
  inhibition at 50 µM: 69%
[2]; 10 μM
  Relative cell survival rate (%): 111%
[2]; 20 μM
  Relative cell survival rate (%): 111%
[2]; 30 μM
  Relative cell survival rate (%): 102%
[2]; 50 μM
  Relative cell survival rate (%): 102%

## CCCCCCCCCCCCNC(=O)c1cccnc1Nc1cccc(C(F)(F)F)c1 [Compound 33]
[1]; 10 μM
  inhibition at 10 µM: 33%
[1]; 30 μM
  inhibition at 30 µM: 100%
[1]; 50 μM
  inhibition at 50 µM: 100%
[2]; 10 μM
  Relative cell survival rate (%): 100%
[2]; 20 μM
  Relative cell survival rate (%): 91%
[2]; 30 μM
  Relative cell survival rate (%): 79%
[2]; 50 μM
  Relative cell survival rate (%): 70%

## CCCCCCCCCCCCNC(=O)c1ncc(F)cc1F [Compound 34]
[1]; 10 μM
  inhibition at 10 µM: 6%
[1]; 30 μM
  inhibition at 30 µM: 43%
[1]; 50 μM
  inhibition at 50 µM: 87%
[2]; 10 μM
  Relative cell survival rate (%): 112%
[2]; 20 μM
  Relative cell survival rate (%): 109%
[2]; 30 μM
  Relative cell survival rate (%): 101%
[2]; 50 μM
  Relative cell survival rate (%): 87%

## CCCCCCCCCCCCNC(=O)c1ccccc1C(=O)O [Compound 37]
[1]; 10 μM
  inhibition at 10 µM: 23%
[1]; 30 μM
  inhibition at 30 µM: 55%
[1]; 50 μM
  inhibition at 50 µM: 65%
[2]; 10 μM
  Relative cell survival rate (%): 90%
[2]; 20 μM
  Relative cell survival rate (%): 90%
[2]; 30 μM
  Relative cell survival rate (%): 90%
[2]; 50 μM
  Relative cell survival rate (%): 92%

## CCCCCCCCCCCCNC(=O)c1ccccc1C(F)(F)F [Compound 38]
[1]; 10 μM
  Proliferation inhibition rate (%): 40%
[1]; 30 μM
  Proliferation inhibition rate (%): 73%
[1]; 50 μM
  Proliferation inhibition rate (%): 85%
[2]; 10 μM
  Relative cell survival rate (%): 90%
[2]; 20 μM
  Relative cell survival rate (%): 91%
[2]; 30 μM
  Relative cell survival rate (%): 89%
[2]; 50 μM
  Relative cell survival rate (%): 89%

## CCCCCCCCCCCCNC(=O)c1c(Cl)cccc1Cl [Compound 39]
[1]; 10 μM
  inhibition at 10 µM: 7%
[1]; 30 μM
  inhibition at 30 µM: 61%
[1]; 50 μM
  inhibition at 50 µM: 89%
[2]; 10 μM
  Relative cell survival rate (%): 89%
[2]; 20 μM
  Relative cell survival rate (%): 102%
[2]; 30 μM
  Relative cell survival rate (%): 78%
[2]; 50 μM
  Relative cell survival rate (%): 79%

## CCCCCCCCCCCC(=O)NCc1ccccc1Br [Compound 43]
[1]; 10 μM
  inhibition at 10 µM: 27%
[1]; 30 μM
  inhibition at 30 µM: 50%
[1]; 50 μM
  inhibition at 50 µM: 72%
[2]; 10 μM
  Relative cell survival rate (%): 101%
[2]; 20 μM
  Relative cell survival rate (%): 104%
[2]; 30 μM
  Relative cell survival rate (%): 108%
[2]; 50 μM
  Relative cell survival rate (%): 108%

## CCCCCCCCCCCCNS(=O)(=O)c1ccccc1F [Compound 45]
[1]; 10 μM
  Proliferation inhibition rate (%): 30%
[1]; 30 μM
  Proliferation inhibition rate (%): 59%
[1]; 50 μM
  Proliferation inhibition rate (%): 97%
[2]; 10 μM
  Relative cell survival rate (%): 96%
[2]; 20 μM
  Relative cell survival rate (%): 94%
[2]; 30 μM
  Relative cell survival rate (%): 76%
[2]; 50 μM
  Relative cell survival rate (%): 74%

## CCCCCCCCCCCCNC(=O)c1ccccc1[N+](=O)[O-] [Compound 50]
[1]; 10 μM
  Proliferation inhibition rate (%): 0%
[1]; 30 μM
  Proliferation inhibition rate (%): 66%
[1]; 50 μM
  Proliferation inhibition rate (%): 97%
[2]; 10 μM
  Relative cell survival rate (%): 74%
[2]; 20 μM
  Relative cell survival rate (%): 75%
[2]; 30 μM
  Relative cell survival rate (%): 70%
[2]; 50 μM
  Relative cell survival rate (%): 68%
